One data set concerns dysplastic mastodynia. The conditions noted are these: women with dysplastic mastodynia; cited from earlier work.
The subject of data set [1] is mammary tissue. The data set is described as follows: Histologic grading of mammary tissue in iodine deficient rats, 4 weeks (Example 12). In kind it is in vivo, Female Sprague-Dawley rats. Conditions: for Fibroadenomata / Lobular hyperplasia / Periductal fibrosis / Secretion: 4 weeks. The method, then: Rats were dosed with molecular iodine once daily. Food was removed from the rats each morning and ten hours later, each rat was dosed with one of three concentrations 0.0010, 0.010 or 0.10 mg/kg of molecular iodine. A dose of iodide (100 ug/kg) was given to a control group of rats. The negative control consisted of rats which were dosed with tap water. At the end of 4 weeks rats were sacrificed and microscopic sections of the mammary gland tissues were stained with hematoxylin and eosin prior to being read by a pathologist.
Six groups of animals were examined: groups 1-3 received daily doses of one of three concentrations of molecular iodine; (4) received the normal diet without perchlorate treatment; (5) received the iodine deficient diet with a water gavage; and (6) received an iodine deficient diet and were dosed with iodide (100 ug/kg). […] The results of this histological grading are shown below in tabular form.

In a further data set the test system is mammary glands. Conditions: compared with iodide; cited from earlier work.
Data set [2] deals with thyroid. The conditions noted are these: male rats, cited from earlier work.
The next data set concerns thyroid hormones. The conditions noted are these: repeated daily doses; no increase below; cited from earlier work.
For data set [3] the following is noted: function of pH; cited from earlier work.
For data set [4], the system named is thyroid. The data set is described as follows: Thyroid weight of rats after subchronic oral administration (Sherer et al., cited). In kind it is in vivo, male rats. The conditions noted are these: compared with molecular iodine. The method, then: The only scientific studies on the relative oral toxicity of molecular iodine and iodide was performed during the early 1990s (Karla Thrall, Ph.D. Thesis, "Formation of Organic By-Products Following Consumption of Iodine Disinfected Drinking Water", Summary and Conclusion Section, Oregon State University, Department of Chemistry, 1992). The weight of a mammals thyroid is one key diagnostic measure used to evaluate the toxicity of an iodine composition. […] Another way to state this is that it required ten time more molecular iodine than iodide to effect animal thyroid function with an orally administered iodine composition.

The test system of data set [5] is mammary tissue. The data set is described as follows: Histologic grading of mammary tissue in iodine deficient rats, 2 week study (Example 8). Type of data set: in vivo, Female Sprague-Dawley rats. The method, then: Perchlorate-treated (400 mg/dL NaClO4) municipal tap water was provided ad libitum for the first five days of captivity. […] Each day for the five days preceding the initiation of testing, animals received estrogen (25 ug of 17-βestradiol) suspended in 100 ul of sesame oil injected IM. During the 2 week experiment estrogen (2.5 ug 17-βestradiol) suspended in 100 ul of sesame oil was injected daily. Vaginal smears were taken every other day to insure that rats achieved constant estrus throughout the experiment.
Rats were dosed with molecular iodine once daily. Food was removed from the rats each morning and ten hours later, each rat was dosed with 80 ug/kg of molecular iodine. An equivalent dose of iodide (80 ug/kg) was given to a control group of rats. The negative control consisted of rats which were dosed with tap water. Rats were weighed daily. At the end of the 2 week study rats were sacrificed and microscopic sections of the mammary gland tissues were stained with hematoxylin and eosin prior to being read by a pathologist.
Each group contained 10 animals.
The mammary tissue was graded for lobular hyperplasia, secretions, periductal fibrosis, and fibroadenomatous changes. The scoring system for lobular hyperplasia, secretions, periductal fibrosis graded as positive only those animals showing moderate to severe conditions. […] The results of this histological grading are shown below in tabular form.

In a further data set the test system is human. Conditions: human oral consumption; cited from earlier work.
Data set [6] can be described thus: Body weight of iodine deficient rats, 2 week study (Example 8). The conditions noted are these: in g (unit assumed).

Take `II` [iodine]: the improvement rate in the data set with dysplastic mastodynia is recorded as 71%.
Take `II` [molecular iodine]: in the data set on mammary tissue [1] (1 ug/kg daily), the “formation of fibroadenomata and periductal fibrosis (in words)” value is “did not substantially alleviate the formation of fibroadenomata and periductal fibrosis”; the Fibroadenomata is 4/10; the Lobular hyperplasia came out at 4.10; the Periductal fibrosis is given as 6/10. In addition, the Secretion in the data set on mammary tissue [1] (1 ug/kg daily) is recorded as 6/10. Besides, in the data set on mammary tissue [1] (10 ug/kg daily), the Fibroadenomata is 1/10, the Lobular hyperplasia is recorded as 2/10, the Periductal fibrosis is 4/10 and the Secretion was 4/10. For the same compound, in the data set with mammary tissue [1] (100 ug/kg daily), the Fibroadenomata was 1/10, the Lobular hyperplasia is given as 2/10, the Periductal fibrosis was 2/10 and the Secretion is 3/10. For the same compound, in the data set on mammary tissue [1] (10 and 100 ug/kg daily), the “formation of fibroadenomata and periductal fibrosis (in words)” value is “substantially reduced the formation of fibroadenomata and periductal fibrosis”. Further, in the data set with mammary glands, the “diminishing ductal hyperplasia and perilobular fibrosis in the mammary glands” value is “distinctly more effective in diminishing ductal hyperplasia and perilobular fibrosis in the mammary glands than iodide”. Also, the “did not effect thyroid weight even at concentrations of” value in the data set with thyroid [2] (no effect up to this dose, oral) is reported as 100 mg/kg. Further, the “dose at which an increase in steady state levels of thyroid hormones was measured” value in the data set on thyroid hormones is reported as 10 mg per kilogram of body weight. Also, the stability in water entry in [3] is recorded as “unstable in water”.
Consider `I` [iodide], for which the “concentration affecting thyroid weight relative to molecular iodine (fold less)” value in the data set on thyroid [4] was 10 fold. Moreover, in the data set with mammary tissue [5] (80 ug/kg daily gavage, 2 weeks), the Fibroadenomata is recorded as 4/10; the “secretion and fibroadenomata (result in words)” value was “displayed increased secretion and fibroadenomata”. In addition, in the data set on mammary tissue [5] (po, 0.08 mg/kg, 336 h), the Lobular hyperplasia is given as 4/10, the Periductal fibrosis is 6/10 and the Secretion was 4/10. Also, in the data set with mammary tissue [1] (100 ug/kg daily), the Fibroadenomata was 3/10, the Lobular hyperplasia is on record as 4/10, the Periductal fibrosis is given as 5/10 and the Secretion was 5/10. Further, the “formation of fibroadenomata (in words)” value in the data set with mammary tissue [1] (iodide 100 ug/kg daily) is on record as “did not substantially alleviate the formation of fibroadenomata”. Also, in the data set with human, the “range of human consumption above which there is a health risk” value is 0.150 to 1.0 mg/day. For the same compound, the “increased thyroid weight, dose” value with thyroid [2] (subchronic oral administration) is 10 mg/kg. In addition, in [6] (80 ug/kg daily, end of 2 weeks), the “average body weight at end” value is 235±7.1. Moreover, the “average body weight at start” value in data set [6] (80 ug/kg, start) stood at 214±6.5.

The record behind these values is patent US5885592A, “Methods and pharmaceutical compositions for oral delivery of molecular iodine” (priority 1997, dated 1999).
